Source: paper PMC4057235, “Development and Evaluation of Small Peptidomimetic Ligands to Protease-Activated Receptor-2 (PAR2) through the Use of Lipid Tethering” (PLoS ONE, 2014)
pEC50: −log10 of the molar value. Each block holds one molecule with its values, some of them ahead of it.

Columns and labels:
[1] = design: method as in PMID 20873792; conditions: at high concentrations (100 µM); cited from earlier work
PAR2 [2] = molecular target: T1, PAR2 (Homo sapiens, UniProt P55085); design: method as in PMID 21467041; conditions: 16HBE14o- cells; read-out: RTCA EC50; cited from earlier work
T1 construct: 16HBE14o- cells on E-plates in growth medium; endogenous in cells; host or cells: 16HBE14o- cells
T1 sequence (P55085 26-397): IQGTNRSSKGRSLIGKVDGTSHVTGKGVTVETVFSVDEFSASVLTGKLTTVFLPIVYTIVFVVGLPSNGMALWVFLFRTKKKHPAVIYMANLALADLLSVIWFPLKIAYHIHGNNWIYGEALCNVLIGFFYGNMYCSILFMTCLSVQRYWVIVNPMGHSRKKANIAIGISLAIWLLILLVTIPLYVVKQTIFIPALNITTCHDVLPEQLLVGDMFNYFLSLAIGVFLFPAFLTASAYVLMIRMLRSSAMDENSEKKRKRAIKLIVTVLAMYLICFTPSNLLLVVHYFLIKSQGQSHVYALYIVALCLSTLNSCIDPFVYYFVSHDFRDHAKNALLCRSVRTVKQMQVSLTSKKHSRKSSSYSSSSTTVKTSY

MrgprC11 [3] = molecular target: T2, MrgprC11 (Mus musculus, UniProt Q8CIP3); design: method as in PMID 21775281; conditions: cited from earlier work
T2 construct: An MrgprC11 cDNA in pcDNA3.1 vector was transfected into CHO cells; expressed in transfected cells; host or cells: CHO cells, transient transfection with Lipofectamine 2000
T2 sequence (Q8CIP3 1-322): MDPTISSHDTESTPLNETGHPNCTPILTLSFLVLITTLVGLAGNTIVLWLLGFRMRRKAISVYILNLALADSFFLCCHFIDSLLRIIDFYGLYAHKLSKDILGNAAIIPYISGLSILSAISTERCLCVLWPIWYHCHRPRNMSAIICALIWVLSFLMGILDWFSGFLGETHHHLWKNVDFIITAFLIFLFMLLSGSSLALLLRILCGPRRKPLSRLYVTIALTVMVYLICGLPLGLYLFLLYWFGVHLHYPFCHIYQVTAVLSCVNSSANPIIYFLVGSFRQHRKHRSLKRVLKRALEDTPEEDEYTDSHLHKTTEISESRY

PAR2 [4] = molecular target: T1, PAR2; assay: Ca2+ desensitization assay in 16HBE14o- cells with 2at-LIGRL-NH2; assay type: cell-based; conditions: compound at its activating concentration, ATP 5 µM
Description: 16HBE14o- cells or CHO cells were loaded with fura 2-acetomethoxyl ester (CalBiochem or Molecular Probes) for 30 min at room temperature. Cells were washed with HBSS and allowed to sit for at least 20 min prior to digital imaging. For activation and desensitization assay experiments using 16HBE14o- cells, [Ca^2+]i was measured as previously described. Experiments consisted of 20 sec of recording of cells in HBSS to determine resting [Ca^2+]i, followed by a 10 sec wash to introduce ligand and up to 10 min of recording for ligand washes required for desensitization experiments. Briefly, fura-2 fluorescence was observed on an Olympus IX70 microscope with a 40X oil immersion objective after alternating excitation between 340 and 380 nm by a 75 W Xenon lamp linked to a Delta Ram V illuminator (PTI) and a gel optic line. Intracellular Ca^2+ concentration ([Ca^2+]i) for each individual cell in the field of view was calculated by ratiometric analysis of fura-2 fluorescence using equations originally published in [31]. Individual ratios were calculated every sec throughout the experiments. […] Percent activation graphs are determined from 3–6 experiments for each ligand concentration. […] Ca^2+ imaging of CHO cells was similar; each ligand concentration tested included at least 3 experiments and a minimum of 200 cells analyzed during each experiment. […]

MrgprC11 [5] = molecular target: T2, MrgprC11; assay: Ca2+ response in MrgprC11 transfected CHO cells; assay type: cell-based
Description: CHO cells were cultured in DMEM supplemented with 10% FBS and 1% penicillin and streptomycin at 37°C in a 5% CO2 atmosphere. One day before transfection, CHO cells were plated in a 60 mm cell culture dish at a concentration of 1×10^5 cells/cm^2 and grown without antibiotics. An MrgprC11 cDNA in pcDNA3.1 vector was transfected into CHO cells using Lipofectamine™ 2000 (Invitrogen) prior to transfer to coverslips for experiments. Coverslips were coated with 0.1 mg/ml poly-D-lysine (from 2 mg/ml stock) and incubated for 1 hr at room temperature, after which the coating solution was removed and the coverslips were washed twice with double distilled water. CHO cells were seeded on coverslips at a concentration of 1×10^5 cells/cm^2 6 hr after transfection. Transfected cells were incubated for 24 hr prior to Ca^2+ imaging.
16HBE14o- cells or CHO cells were loaded with fura 2-acetomethoxyl ester (CalBiochem or Molecular Probes) for 30 min at room temperature. Cells were washed with HBSS and allowed to sit for at least 20 min prior to digital imaging. For activation and desensitization assay experiments using 16HBE14o- cells, [Ca^2+]i was measured as previously described. Experiments consisted of 20 sec of recording of cells in HBSS to determine resting [Ca^2+]i, followed by a 10 sec wash to introduce ligand and up to 10 min of recording for ligand washes required for desensitization experiments. Briefly, fura-2 fluorescence was observed on an Olympus IX70 microscope with a 40X oil immersion objective after alternating excitation between 340 and 380 nm by a 75 W Xenon lamp linked to a Delta Ram V illuminator (PTI) and a gel optic line. Intracellular Ca^2+ concentration ([Ca^2+]i) for each individual cell in the field of view was calculated by ratiometric analysis of fura-2 fluorescence using equations originally published in [31]. Individual ratios were calculated every sec throughout the experiments. [Ca^2+]i traces over time are averaged [Ca^2+]i of all cells within a field of view (80–120) and are representative of at least 3 experiments. Cells were considered activated by the ligand if their resting [Ca^2+]i was increased above a 200 nM threshold, a 2–4 fold increase above typical resting values. Percent activation graphs are determined from 3–6 experiments for each ligand concentration. Time to threshold in individual cells represent between 200–400 cells from at least 3 experiments at each ligand concentration. Ca^2+ imaging of CHO cells was similar; each ligand concentration tested included at least 3 experiments and a minimum of 200 cells analyzed during each experiment.

Molecule: CCC(C)C(NC(=O)C(CC1CCCCC1)NC(=O)c1ccno1)C(N)=O (stereo not drawn) [Compound 5io-Cha-I-NH2]
solubility [1]: lack of solubility

Molecule: 6-aminonicotinyl-LIGRL-NH2
pEC50 (PAR2 [2]): 6.37

Molecule: SLIGR-NH2
MrgprC11 signaling (MrgprC11 [3]): lost MrgprC11 signaling capacity

Molecule: SLIGRL-NH2 (H-SLIGRL-NH2)
pEC50 (MrgprC11 [3]; read-out: MrgprC11 activation EC50): 5.00

Molecule: Nc1ncnc2c1ncn2[C@@H]1O[C@H](COP(=O)(O)OP(=O)(O)OP(=O)(O)O)[C@@H](O)[C@H]1O [ATP]
Ca2+ response after PAR2 desensitization with 50 µM 2at-LIGRL-NH2 (PAR2 [4]): remained an effective agonist

Ca2+ response (% of cells) (MrgprC11 [5]; 1 µM): no response | Ca2+ response (% of cells) (MrgprC11 [5]; 10 µM): 10%
Molecule: 2at-LIGRL-NH2 [reference compound]
pEC50 (PAR2 [2]): 6.51 | Ca2+ response after PAR2 desensitization with 50 µM 2at-LIGRL-NH2 (PAR2 [4]): did not result in an increase of [Ca^2+]i
